Reference: patent US4426524A, “Heterocyclic substituted benzyl alcohol, insecticidal ester derivatives, and intermediates” (priority 1982, dated 1984)

How the values were obtained:
[1] = system: twospotted spider mite; experiment: Foliar application, twospotted spider mite; assay type: in vivo; conditions: Tetranychus urticae, TSM, foliar, 48 hours, read-out: Foliar % Kill (ppm)
Protocol: (§1) Foliar Application: The activity of some of the compounds of the invention against various test species selected from pea aphid (Acyrthosiphon pisum), twospotted spider mite (Tetranychus urticae), southern armyworm (Spodoptera eridania), Mexican bean beetle (Epilachna varivestis), and cabbage looper (Tricoplusia ni) was determined by foliar application of the test compound. The test materials were formulated as aqueous solutions containing 10% acetone and 0.25% acetylphenoxypolyethoxyethanol. Activity against pea aphid was determined on English fava bean plants the leaves of which were sprayed to runoff with various concentrations of test solution prior to infestation with adult aphids. Activity against twospotted spider mite was evaluated on pinto bean plants whose leaves were sprayed to runoff with various concentrations of test solution after infestation with adult mites. Activity against the remaining species was evaluated on pinto bean plants whose leaves were sprayed to runoff with various concentrations of test solution before infestation with the appropriate immature insects. Mortality was read approximately 48 hours after treatment.

[2] = system: pea aphid; experiment: Foliar application, pea aphid; assay type: in vivo; conditions: Acyrthosiphon pisum, PA, foliar, 48 hours, read-out: Foliar % Kill (ppm)
Protocol: as §1

[3] = system: southern armyworm; experiment: Topical application, southern armyworm; assay type: in vivo, Spodoptera eridania; conditions: SAW; for Topical % Kill @ 5000 ng/insect: 24 hours
Protocol: (§2) Topical Application: The compounds of this invention were tested for insecticidal activity against various insect species selected from southern armyworm (Spodoptera eridania), Mexican bean beetle, (Epilachna varivestis), milkweed bug (Oncopeltus fasciatus), and cabbage looper (Tricoplusia ni) by applying to the second or third dorsal thoracic segment of each larvae a one microliter droplet containing 5 mg/mL of test compound in acetone (5000 ng/insect). The test was allowed to stand 24 hours after application and was then read to determine the percent kill.
(§3) To determine the LD50 of the compounds, the topical application test was repeated by applying various amounts of toxicant. Also included among the species tested against for this determination were tobacco budworm (Heliothis virescens), beet armyworm (Spodoptera exigua), and boll weevil (Anthonomus grandis).

[4] = system: Mexican bean beetle; experiment: Topical application, Mexican bean beetle; assay type: in vivo, Epilachna varivestis; conditions: MBB; for Topical % Kill @ 5000 ng/insect: 24 hours
Protocol: as §2, §3

[5] = system: beet armyworm; experiment: Topical application, beet armyworm; assay type: in vivo, Spodoptera exigua; conditions: BAW
Protocol: as §2, §3

[6] = system: milkweed bug; experiment: Topical application, milkweed bug; assay type: in vivo, Oncopeltus fasciatus; conditions: MWB; for Topical % Kill @ 5000 ng/insect: 24 hours
Protocol: as §2, §3

[7] = system: cabbage looper; experiment: Topical application, cabbage looper; assay type: in vivo, Tricoplusia ni; conditions: CL
Protocol: as §2, §3

[8] = system: boll weevil; experiment: Topical application, boll weevil; assay type: in vivo, Anthonomus grandis; conditions: BW
Protocol: as §2, §3

[9] = system: tobacco budworm; experiment: Topical application, tobacco budworm; assay type: in vivo, Heliothis virescens; conditions: TBW
Protocol: as §2, §3

[10] = system: milkweed bug; experiment: Foliar application, milkweed bug; assay type: in vivo; conditions: Oncopeltus fasciatus, MWB, 48 hours, read-out: Foliar % Kill (ppm)
[11] = system: cabbage looper; experiment: Foliar application, cabbage looper; assay type: in vivo, Tricoplusia ni; conditions: Trichoplusia ni, CL, 24 ppm, 48 hours, read-out: Foliar % Kill (ppm)
Protocol: as §1

[12] = system: southern armyworm; experiment: Foliar application, southern armyworm; assay type: in vivo; conditions: Spodoptera eridania; SAW, foliar, 512 ppm, 48 hours; read-out: Foliar % Kill (ppm)
Protocol: as §1

Row | SMILES | mortality at 500 ppm ([1]; 500 ppm) [%] | mortality at 500 ppm ([2]; 500 ppm) [%] | Topical LD50 [3] [ng/insect] | Topical % Kill @ 5000 ng/insect [3] [%] | Topical LD50 [4] [ng/insect] | Topical % Kill @ 5000 ng/insect [4] [%] | Topical LD50 [5] [ng/insect] | Topical LD50 [6] [ng/insect] | Topical % Kill @ 5000 ng/insect [6] [%] | Topical LD50 [7] [ng/insect] | mortality at 512 ppm ([1]; 512 ppm) [%] | mortality at 512 ppm ([2]; 512 ppm) [%] | Topical LD50 [8] [ng/insect] | Topical LD50 [9] [ng/insect] | mortality at 512 ppm [10] [%] | mortality at 24 ppm [11] [%] | mortality at 512 ppm [12] [%]
1 | CC1(C)[C@H](C=C(Cl)Cl)[C@@H]1C(=O)OCc1cccc(-c2ccsc2)c1 (relative stereo) [d, 3-(3-thienyl)phenylmethyl cis-3-(2,2-dichloroethenyl)-2,2-dimethylcyclopropanecarboxylate] | 100 | 100 | 57 | 100 | 73 | 100 | 3010 | 1137 | 95 | 2408 |  |  |  |  |  |  | 
2 | Cc1c(COC(=O)[C@H]2[C@@H](C=C(Cl)C(F)(F)F)C2(C)C)cccc1-c1cccs1 (relative stereo) [e, [2-methyl-3-(2-thienyl)phenyl]-methyl cis-3-(2-chloro-3,3,3-trifluoro-1-propenyl)-2,2-dimethylcyclopropanecarboxylate] |  |  | 23 | 100 | 7 | 100 |  | 72 | 100 | 74 | 100 | 100 | 11 | 43 | 100 | 95 | 100
